Measured values from ChEMBL document CHEMBL1201862, “PubChem BioAssay data set” (2004).
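Each compound was tested at five concentrations against cells in 96-well plates for 48 hours. The concentration for 50% growth inhibition is given as GI50.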 The source made the active and inactive calls. Rule as the data show it: active = GI50 up to about 1.1 µM and inactive = higher.

What was measured:
Test in all cases: DTP human tumour cell line panel, 48 h
[1] = test system: CCRF-CEM
[2] = test system: PC-3
[3] = test system: DU-145
[4] = test system: K562
[5] = test system: A498
[6] = test system: NCI-H23
[7] = test system: 786-0
[8] = test system: HT-29
[9] = test system: HCT-116
[10] = test system: SK-OV-3
[11] = test system: BT-549
[12] = test system: SF-268
[13] = test system: HL-60
[14] = test system: NCI-H460
[15] = test system: SF-539
[16] = test system: IGROV-1
[17] = test system: SW-620
[18] = test system: OVCAR-5
[19] = test system: SNB-19
[20] = test system: MDA-N
[21] = test system: SNB-75
[22] = test system: A549
[23] = test system: OVCAR-4
[24] = test system: SF-295
[25] = test system: RPMI-8226
[26] = test system: OVCAR-8
[27] = test system: SR
[28] = test system: HOP-92
[29] = test system: Hs-578T
[30] = test system: NCI-H226
[31] = test system: T47D
[32] = test system: NCI-H522
[33] = test system: SK-MEL-5
[34] = test system: MCF7
[35] = test system: UO-31
[36] = test system: ACHN
[37] = test system: CAKI-1
[38] = test system: U-251
[39] = test system: HCT-15
[40] = test system: KM12
[41] = test system: OVCAR-3
[42] = test system: M14
[43] = test system: Malme-3M
[44] = test system: MDA-MB-231
[45] = test system: SK-MEL-28
[46] = test system: MDA-MB-435
[47] = test system: SN12C
[48] = test system: UACC-257
[49] = test system: HOP-62
[50] = test system: EKVX
[51] = test system: TK-10
[52] = test system: UACC-62
[53] = test system: LOX IMVI
[54] = test system: COLO 205
[55] = test system: RXF 393
[56] = test system: MOLT-4
[57] = test system: NCI/ADR-RES
[58] = test system: SK-MEL-2
[59] = test system: HCC 2998

With `O=C1C(O)=C(C(C2=C(O)C(=O)c3ccccc3C2=O)c2ccc(Cl)cc2)C(=O)c2ccccc21` the GI50 [1] was 6.4 µM (inactive), the GI50 [2] was 18.8 µM (inactive) and the GI50 [3] was 5.42 µM (inactive). For the same molecule, the GI50 [4] was 15.2 µM (inactive), the GI50 [5] was 18.4 µM (inactive) and the GI50 [6] was 4.85 µM (inactive). For the same molecule, the GI50 [7] was 3.33 µM (inactive), the GI50 [8] was 7.87 µM (inactive) and the GI50 [9] was 6.34 µM (inactive). The GI50 [10] was 17.7 µM (inactive), the GI50 [11] was 15.6 µM (inactive) and the GI50 [12] was 10.4 µM (inactive). The GI50 [13] was 1.66 µM (inactive), the GI50 [14] was 14 µM (inactive) and the GI50 [15] was 18 µM (inactive). For the same molecule, the GI50 [16] was 8.2 µM (inactive), the GI50 [17] was 4.69 µM (inactive) and the GI50 [18] was 7.93 µM (inactive). The GI50 [19] was 19.5 µM (inactive), the GI50 [20] was 1.83 µM (inactive) and the GI50 [21] was 2.5 µM (inactive). For the same molecule, the GI50 [22] was 19.3 µM (inactive), the GI50 [23] was 6.24 µM (inactive) and the GI50 [24] was 5.78 µM (inactive). For the same molecule, the GI50 [25] was 9.86 µM (inactive), the GI50 [26] was 8.75 µM (inactive) and the GI50 [27] was 3.18 µM (inactive). The GI50 [28] was 14.3 µM (inactive), the GI50 [29] was 14.7 µM (inactive) and the GI50 [30] was 28.9 µM (inactive). The GI50 [31] was 21 µM (inactive), the GI50 [32] was 8.95 µM (inactive) and the GI50 [33] was 6.67 µM (inactive). For the same molecule, the GI50 [34] was 5.13 µM (inactive), the GI50 [35] was 10.1 µM (inactive) and the GI50 [36] was 6.46 µM (inactive). The GI50 [37] was 9.4 µM (inactive), the GI50 [38] was 6.24 µM (inactive) and the GI50 [39] was 9.12 µM. The GI50 [40] was 8.97 µM (inactive), the GI50 [41] was 4.93 µM (inactive) and the GI50 [42] was 9.59 µM (inactive). For the same molecule, the GI50 [43] was 5.25 µM (inactive), the GI50 [44] was 3.15 µM (inactive) and the GI50 [45] was 28.1 µM (inactive). The GI50 [46] was 1.83 µM (inactive), the GI50 [47] was 1.71 µM (inactive) and the GI50 [48] was 5 µM (inactive). The GI50 [49] was 6.47 µM (inactive), the GI50 [50] was 13.6 µM (inactive) and the GI50 [51] was 14.7 µM (inactive). For the same molecule, the GI50 [52] was 9.75 µM (inactive), the GI50 [53] was 2.64 µM (inactive) and the GI50 [54] was 18.6 µM (inactive). The GI50 [55] was 7.13 µM (inactive), the GI50 [56] was 4.56 µM (inactive) and the GI50 [57] was 11.6 µM (inactive). The GI50 [58] was 8.36 µM (inactive).
With `O=C(/C(Cl)=C/c1ccccc1)c1ccccc1` the GI50 [1] was 0.692 µM (active), the GI50 [2] was 2.61 µM (inactive) and the GI50 [3] was 6.32 µM (inactive). The GI50 [4] was 2.06 µM (inactive), the GI50 [5] was 20.6 µM (inactive) and the GI50 [6] was 11.1 µM (inactive). For the same molecule, the GI50 [7] was 1.53 µM (inactive), the GI50 [8] was 1.46 µM (inactive) and the GI50 [9] was 1.21 µM (inactive). The GI50 [10] was 19.7 µM (inactive), the GI50 [11] was 2.22 µM (inactive) and the GI50 [12] was 7.06 µM (inactive). The GI50 [14] was 8.71 µM (inactive), the GI50 [15] was 3.03 µM (inactive) and the GI50 [17] was 1.84 µM (inactive). The GI50 [18] was 4.42 µM (inactive), the GI50 [19] was 15.1 µM (inactive) and the GI50 [20] was 1.86 µM (inactive). The GI50 [21] was 13.2 µM (inactive), the GI50 [22] was 10.9 µM (inactive) and the GI50 [23] was 4.41 µM (inactive). For the same molecule, the GI50 [24] was 17.5 µM (inactive), the GI50 [25] was 2.33 µM (inactive) and the GI50 [26] was 2.84 µM (inactive). For the same molecule, the GI50 [27] was 1.85 µM (inactive), the GI50 [28] was 3.13 µM (inactive) and the GI50 [29] was 3.54 µM (inactive). The GI50 [30] was 7.26 µM (inactive), the GI50 [31] was 4.07 µM (inactive) and the GI50 [32] was 1.58 µM (inactive). For the same molecule, the GI50 [33] was 3.11 µM (inactive), the GI50 [34] was 2.05 µM (inactive) and the GI50 [35] was 2.32 µM (inactive). The GI50 [36] was 2.24 µM (inactive), the GI50 [37] was 1.7 µM (inactive) and the GI50 [38] was 4.27 µM (inactive). The GI50 [39] was 2.47 µM, the GI50 [40] was 4.08 µM (inactive) and the GI50 [41] was 2.21 µM (inactive). For the same molecule, the GI50 [42] was 2.28 µM (inactive), the GI50 [43] was 2 µM (inactive) and the GI50 [44] was 5.6 µM (inactive). The GI50 [45] was 2.29 µM (inactive), the GI50 [46] was 3.01 µM (inactive) and the GI50 [47] was 1.82 µM (inactive). For the same molecule, the GI50 [48] was 6.9 µM (inactive), the GI50 [49] was 19.2 µM (inactive) and the GI50 [50] was 11.2 µM (inactive). The GI50 [59] was 6.68 µM (inactive), the GI50 [51] was 3.21 µM (inactive) and the GI50 [52] was 8.55 µM (inactive). For the same molecule, the GI50 [53] was 2.11 µM (inactive), the GI50 [54] was 2.58 µM (inactive) and the GI50 [55] was 2.46 µM (inactive). For the same molecule, the GI50 [56] was 2.61 µM (inactive), the GI50 [57] was 3.55 µM (inactive) and the GI50 [58] was 13.1 µM (inactive).
